{
  "source": "ChEMBL document CHEMBL3763027",
  "about": "“Identification and characterization of potent, selective and metabolically stable IKKβ inhibitor” (Bioorg Med Chem Lett, 2016)",
  "key": {"Homo sapiens [1]": {"organism": "Homo sapiens", "assay": "Inhibition of TPKA (unknown origin) at 10 uM"}, "[2]": {"biological_target": "Cyclin-dependent kinase 7/ cyclin H (Homo sapiens) (UniProt P51946+P50613)", "assay": "Inhibition of CDK7/cyclin H (unknown origin) at 10 uM", "assay_type": "protein-complex assay"}, "[3]": {"biological_target": "T1, Inhibitor of nuclear factor kappa-B kinase subunit beta (Homo sapiens) (UniProt O14920)", "T1 sequence (whole entry)": "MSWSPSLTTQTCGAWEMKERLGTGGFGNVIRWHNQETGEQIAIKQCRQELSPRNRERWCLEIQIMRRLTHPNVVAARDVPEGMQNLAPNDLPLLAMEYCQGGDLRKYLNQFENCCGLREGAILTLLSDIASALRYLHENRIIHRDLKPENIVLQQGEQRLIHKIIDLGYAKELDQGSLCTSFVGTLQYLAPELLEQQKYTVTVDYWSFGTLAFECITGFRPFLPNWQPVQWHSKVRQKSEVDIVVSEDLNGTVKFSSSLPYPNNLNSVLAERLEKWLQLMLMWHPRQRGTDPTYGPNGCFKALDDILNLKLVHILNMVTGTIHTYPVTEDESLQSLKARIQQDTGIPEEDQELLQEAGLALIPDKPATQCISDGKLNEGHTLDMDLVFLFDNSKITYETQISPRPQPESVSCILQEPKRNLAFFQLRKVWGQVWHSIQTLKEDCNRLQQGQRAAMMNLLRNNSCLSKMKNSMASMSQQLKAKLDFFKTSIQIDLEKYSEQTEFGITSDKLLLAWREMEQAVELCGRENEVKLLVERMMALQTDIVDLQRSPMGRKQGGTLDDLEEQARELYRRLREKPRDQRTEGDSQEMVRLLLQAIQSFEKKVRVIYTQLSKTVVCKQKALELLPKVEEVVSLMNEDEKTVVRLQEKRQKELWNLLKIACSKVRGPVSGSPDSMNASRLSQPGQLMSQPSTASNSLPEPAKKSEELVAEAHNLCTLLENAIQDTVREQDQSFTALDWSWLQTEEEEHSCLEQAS", "assay": "Inhibition of IKKbeta (unknown origin) transfected in human HeLa cells assessed as inhibition of TPA-induced NF-kappaB activation at 10 uM pre-incubated with compound for 1 hr followed by TPA addition after 8 hrs by luciferase reporter gene assay", "assay_type": "cell-based"}, "[4]": {"assay": "Half life in Sprague-Dawley rat at 1 mg/kg, iv after 0.25 to 24 hrs", "assay_type": "ADME, organism-based", "conditions": "in vivo"}, "[5]": {"assay": "Metabolic stability in rat plasma assessed as compound remaining after 120 mins", "assay_type": "ADME, cell-free", "conditions": "read-out: Stability"}, "[6]": {"biological_target": "MAP kinase-activated protein kinase 2 (Homo sapiens) (UniProt P49137)", "sequence (P49137 whole entry, looked up)": "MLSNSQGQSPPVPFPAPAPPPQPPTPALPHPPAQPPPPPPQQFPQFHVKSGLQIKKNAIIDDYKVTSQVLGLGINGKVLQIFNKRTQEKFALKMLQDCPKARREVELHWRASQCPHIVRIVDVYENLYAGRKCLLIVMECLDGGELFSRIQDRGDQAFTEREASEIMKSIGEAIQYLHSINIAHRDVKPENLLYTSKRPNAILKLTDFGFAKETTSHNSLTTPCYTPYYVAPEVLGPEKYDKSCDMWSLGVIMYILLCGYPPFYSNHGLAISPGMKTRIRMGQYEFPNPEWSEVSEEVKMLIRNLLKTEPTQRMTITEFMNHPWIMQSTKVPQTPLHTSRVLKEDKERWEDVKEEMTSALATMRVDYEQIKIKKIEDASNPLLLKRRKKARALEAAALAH", "assay": "Inhibition of MAPKAPK2 (unknown origin) at 10 uM"}, "Homo sapiens [7]": {"organism": "Homo sapiens", "assay": "Inhibition of PKA (unknown origin) at 10 uM"}, "[8]": {"biological_target": "Mitogen-activated protein kinase 14 (Homo sapiens) (UniProt Q16539)", "sequence (Q16539 whole entry)": "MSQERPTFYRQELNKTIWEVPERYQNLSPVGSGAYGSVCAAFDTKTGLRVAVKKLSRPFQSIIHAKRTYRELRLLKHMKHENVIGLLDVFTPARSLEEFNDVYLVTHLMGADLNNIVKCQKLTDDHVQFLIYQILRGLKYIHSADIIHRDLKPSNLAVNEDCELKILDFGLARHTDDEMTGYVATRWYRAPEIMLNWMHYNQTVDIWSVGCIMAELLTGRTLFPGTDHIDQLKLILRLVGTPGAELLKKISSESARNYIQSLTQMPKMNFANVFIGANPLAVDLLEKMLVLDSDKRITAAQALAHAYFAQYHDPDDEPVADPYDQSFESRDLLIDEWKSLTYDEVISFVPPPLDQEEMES", "assay": "Inhibition of MAPK14 (unknown origin) at 10 uM"}, "[9]": {"biological_target": "Proto-oncogene tyrosine-protein kinase Src (Homo sapiens) (UniProt P12931)", "sequence (P12931 2-536 limits assumed)": "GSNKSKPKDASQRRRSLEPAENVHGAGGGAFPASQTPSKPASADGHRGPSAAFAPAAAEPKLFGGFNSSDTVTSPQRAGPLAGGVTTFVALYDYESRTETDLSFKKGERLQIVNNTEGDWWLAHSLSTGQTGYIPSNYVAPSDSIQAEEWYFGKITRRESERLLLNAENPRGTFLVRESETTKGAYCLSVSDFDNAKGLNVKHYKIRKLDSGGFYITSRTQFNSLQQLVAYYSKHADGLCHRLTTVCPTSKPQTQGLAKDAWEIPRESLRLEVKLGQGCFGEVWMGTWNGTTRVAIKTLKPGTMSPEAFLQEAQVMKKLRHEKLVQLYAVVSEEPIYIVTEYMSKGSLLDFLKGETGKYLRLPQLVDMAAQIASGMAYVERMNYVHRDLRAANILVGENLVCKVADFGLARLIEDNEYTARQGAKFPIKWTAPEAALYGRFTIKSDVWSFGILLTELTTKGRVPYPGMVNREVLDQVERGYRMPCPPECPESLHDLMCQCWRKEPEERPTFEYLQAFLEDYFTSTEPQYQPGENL", "assay": "Inhibition of c-Src (unknown origin) at 10 uM"}, "[10]": {"biological_target": "T1, Inhibitor of nuclear factor kappa-B kinase subunit beta (Homo sapiens)", "assay": "Non-competitive inhibition of IKKbeta (unknown origin) using FAM-IkBalpha derived peptide as substrate at 0.5 to 1 uM incubated for 1 hr measured after 15 hrs by Lineweaver-Burk plot method in the presence of 0.625 to 10 uM ATP"}, "[11]": {"biological_target": "Inhibitor of nuclear factor kappa-B kinase subunit alpha (Homo sapiens) (UniProt O15111)", "sequence (O15111 whole entry)": "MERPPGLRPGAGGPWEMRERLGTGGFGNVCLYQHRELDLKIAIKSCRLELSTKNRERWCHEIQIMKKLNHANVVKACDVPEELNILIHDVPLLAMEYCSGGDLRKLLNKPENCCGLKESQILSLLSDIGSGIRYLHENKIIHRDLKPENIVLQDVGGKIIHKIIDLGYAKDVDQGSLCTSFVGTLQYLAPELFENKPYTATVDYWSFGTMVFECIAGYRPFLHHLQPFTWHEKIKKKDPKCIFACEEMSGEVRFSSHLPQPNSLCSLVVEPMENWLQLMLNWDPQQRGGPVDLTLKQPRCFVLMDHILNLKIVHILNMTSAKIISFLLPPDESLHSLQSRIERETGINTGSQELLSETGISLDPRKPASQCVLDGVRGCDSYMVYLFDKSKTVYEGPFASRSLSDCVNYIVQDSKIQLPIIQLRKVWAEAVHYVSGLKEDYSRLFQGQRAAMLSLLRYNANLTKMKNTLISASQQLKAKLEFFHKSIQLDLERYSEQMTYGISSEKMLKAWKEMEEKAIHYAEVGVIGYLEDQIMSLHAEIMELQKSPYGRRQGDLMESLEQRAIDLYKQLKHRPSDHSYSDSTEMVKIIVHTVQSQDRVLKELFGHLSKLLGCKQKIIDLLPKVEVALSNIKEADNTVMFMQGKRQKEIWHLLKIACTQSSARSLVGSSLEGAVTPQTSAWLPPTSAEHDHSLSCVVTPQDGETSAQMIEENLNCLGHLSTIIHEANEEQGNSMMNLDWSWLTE", "assay": "Inhibition of IKKalpha (unknown origin) at 10 uM"}, "Mus musculus [12]": {"test_system": "Mus musculus", "assay": "Toxicity in female ICR mouse assessed as average body weight at 2000 mg/kg, po administered for 3 days measured 3 hrs post last dose (reference value: 18.9 +/- 0.9 g)", "assay_type": "organism-based", "conditions": "in vivo"}, "Mus musculus [13]": {"test_system": "Mus musculus", "assay": "Toxicity in male ICR mouse assessed as average body weight at 2000 mg/kg, po administered for 2 days measured 3 hrs post last dose (reference value: 20.3 +/- 0.4 g)", "assay_type": "organism-based", "conditions": "in vivo"}, "[14]": {"biological_target": "Tyrosine-protein kinase ABL1 (Homo sapiens) (UniProt P00519)", "assay": "Inhibition of Abl1 (unknown origin) at 10 uM"}, "[15]": {"biological_target": "Cyclin-dependent kinase 1/cyclin B1 (Homo sapiens) (UniProt P06493+P14635)", "sequence (P06493 whole entry, looked up)": "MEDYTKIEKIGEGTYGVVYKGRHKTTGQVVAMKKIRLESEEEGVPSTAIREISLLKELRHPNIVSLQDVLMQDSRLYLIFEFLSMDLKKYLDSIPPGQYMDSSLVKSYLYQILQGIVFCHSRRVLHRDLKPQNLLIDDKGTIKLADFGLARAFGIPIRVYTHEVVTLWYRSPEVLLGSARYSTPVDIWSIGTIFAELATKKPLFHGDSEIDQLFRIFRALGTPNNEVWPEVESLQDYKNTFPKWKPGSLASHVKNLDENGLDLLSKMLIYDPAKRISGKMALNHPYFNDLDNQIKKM", "sequence (P14635 whole entry, looked up)": "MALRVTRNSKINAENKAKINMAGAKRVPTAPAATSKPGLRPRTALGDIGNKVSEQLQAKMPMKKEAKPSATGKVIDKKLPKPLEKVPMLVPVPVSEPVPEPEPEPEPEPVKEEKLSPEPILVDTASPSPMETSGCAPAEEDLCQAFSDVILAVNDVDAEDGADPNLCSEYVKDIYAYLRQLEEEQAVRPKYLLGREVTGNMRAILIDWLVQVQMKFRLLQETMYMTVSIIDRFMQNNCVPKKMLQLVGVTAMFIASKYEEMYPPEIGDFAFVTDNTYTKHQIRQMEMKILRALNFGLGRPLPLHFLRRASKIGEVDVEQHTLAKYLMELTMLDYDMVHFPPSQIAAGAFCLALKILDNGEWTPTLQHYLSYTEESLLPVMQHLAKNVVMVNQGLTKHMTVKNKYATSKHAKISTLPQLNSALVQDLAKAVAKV", "assay": "Inhibition of CDK1/cyclin B (unknown origin) at 10 uM", "assay_type": "protein-complex assay"}, "[16]": {"assay": "Half life in human microsomes", "assay_type": "ADME, Microsome"}, "[17]": {"assay": "Cmax in Sprague-Dawley rat at 2 mg/kg, po after 0.25 to 24 hrs", "assay_type": "ADME, organism-based", "design": "dose 2 mg/kg, route oral", "conditions": "in vivo"}, "Rattus norvegicus": {"test_system": "Rattus norvegicus", "assay": "Clearance in Sprague-Dawley rat at 2 mg/kg, po after 0.25 to 24 hrs", "assay_type": "ADME, organism-based", "conditions": "in vivo"}, "[18]": {"biological_target": "Glycogen synthase kinase-3 beta (Homo sapiens) (UniProt P49841)", "sequence (P49841 whole entry, looked up)": "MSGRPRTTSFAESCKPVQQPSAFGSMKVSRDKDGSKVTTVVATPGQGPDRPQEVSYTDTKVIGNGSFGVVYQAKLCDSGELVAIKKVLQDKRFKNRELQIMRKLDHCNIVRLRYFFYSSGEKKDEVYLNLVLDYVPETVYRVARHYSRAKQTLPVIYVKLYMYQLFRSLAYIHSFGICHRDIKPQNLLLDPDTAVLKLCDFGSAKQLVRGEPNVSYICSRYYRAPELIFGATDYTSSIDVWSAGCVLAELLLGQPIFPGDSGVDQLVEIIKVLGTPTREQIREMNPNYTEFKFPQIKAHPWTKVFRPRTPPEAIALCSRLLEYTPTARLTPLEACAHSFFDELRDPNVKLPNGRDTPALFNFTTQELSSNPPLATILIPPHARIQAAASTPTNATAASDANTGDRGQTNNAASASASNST", "assay": "Inhibition of GSK3beta (unknown origin) at 10 uM"}, "Mus musculus [19]": {"test_system": "Mus musculus", "assay": "Toxicity in male ICR mouse assessed as average body weight at 2000 mg/kg, po administered on day 1 measured 3 hrs post dose (reference value: 20.3 +/- 0.4 g)", "assay_type": "organism-based", "conditions": "in vivo"}, "[20]": {"biological_target": "Cyclin-dependent kinase 4/cyclin D1 (Homo sapiens) (UniProt P11802+P24385)", "assay": "Inhibition of CDK4/cyclin D1 (unknown origin) at 10 uM", "assay_type": "protein-complex assay"}, "[21]": {"biological_target": "MAP kinase-interacting serine/threonine-protein kinase 1 (Homo sapiens) (UniProt Q9BUB5)", "sequence (Q9BUB5 whole entry, looked up)": "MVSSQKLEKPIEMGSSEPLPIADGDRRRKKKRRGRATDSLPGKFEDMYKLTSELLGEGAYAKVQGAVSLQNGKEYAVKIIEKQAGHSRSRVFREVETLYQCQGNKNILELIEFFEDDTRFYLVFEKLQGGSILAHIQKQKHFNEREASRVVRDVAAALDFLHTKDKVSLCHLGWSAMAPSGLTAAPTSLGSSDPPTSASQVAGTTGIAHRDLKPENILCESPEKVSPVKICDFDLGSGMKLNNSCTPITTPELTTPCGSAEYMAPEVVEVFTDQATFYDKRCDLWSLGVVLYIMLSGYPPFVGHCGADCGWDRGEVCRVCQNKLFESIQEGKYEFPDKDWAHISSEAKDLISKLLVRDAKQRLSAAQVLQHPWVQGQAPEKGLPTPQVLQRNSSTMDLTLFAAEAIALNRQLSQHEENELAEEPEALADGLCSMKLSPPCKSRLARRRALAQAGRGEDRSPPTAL", "assay": "Inhibition of MNK1 (unknown origin) at 10 uM"}, "Mus musculus [22]": {"test_system": "Mus musculus", "assay": "Toxicity in female ICR mouse assessed as average body weight at 2000 mg/kg, po administered for 14 days measured 3 hrs post last dose (reference value: 18.9 +/- 0.9 g)", "assay_type": "organism-based", "conditions": "in vivo"}, "[23]": {"biological_target": "Cyclin-dependent kinase 5/CDK5 activator 1 (Homo sapiens) (UniProt Q00535+Q15078)", "sequence (Q00535 whole entry)": "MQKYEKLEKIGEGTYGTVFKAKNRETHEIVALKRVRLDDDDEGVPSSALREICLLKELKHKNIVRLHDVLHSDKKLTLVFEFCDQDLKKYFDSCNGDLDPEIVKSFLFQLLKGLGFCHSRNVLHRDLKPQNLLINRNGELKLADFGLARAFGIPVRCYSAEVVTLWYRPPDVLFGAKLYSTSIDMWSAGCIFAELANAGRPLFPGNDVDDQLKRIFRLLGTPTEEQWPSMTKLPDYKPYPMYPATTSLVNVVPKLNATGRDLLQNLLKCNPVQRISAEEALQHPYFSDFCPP", "sequence (Q15078 99-307 partner limits assumed)": "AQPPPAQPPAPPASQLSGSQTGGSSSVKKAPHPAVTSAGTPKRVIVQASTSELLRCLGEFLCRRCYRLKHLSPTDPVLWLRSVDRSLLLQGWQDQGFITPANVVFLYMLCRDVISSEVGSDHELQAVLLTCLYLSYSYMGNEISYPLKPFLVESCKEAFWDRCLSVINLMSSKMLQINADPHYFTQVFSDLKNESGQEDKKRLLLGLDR", "assay": "Inhibition of CDK5/p25 (unknown origin) at 10 uM", "assay_type": "protein-complex assay"}, "[24]": {"assay": "Volume of distribution in Sprague-Dawley rat at 1 mg/kg, iv after 0.25 to 24 hrs", "assay_type": "ADME, organism-based", "conditions": "in vivo"}, "Mus musculus [25]": {"test_system": "Mus musculus", "assay": "Toxicity in female ICR mouse assessed as average body weight at 2000 mg/kg, po administered for 7 days measured 3 hrs post last dose (reference value: 18.9 +/- 0.9 g)", "assay_type": "organism-based", "conditions": "in vivo"}, "[26]": {"biological_target": "Aurora kinase B (Homo sapiens) (UniProt Q96GD4)", "sequence (Q96GD4 whole entry)": "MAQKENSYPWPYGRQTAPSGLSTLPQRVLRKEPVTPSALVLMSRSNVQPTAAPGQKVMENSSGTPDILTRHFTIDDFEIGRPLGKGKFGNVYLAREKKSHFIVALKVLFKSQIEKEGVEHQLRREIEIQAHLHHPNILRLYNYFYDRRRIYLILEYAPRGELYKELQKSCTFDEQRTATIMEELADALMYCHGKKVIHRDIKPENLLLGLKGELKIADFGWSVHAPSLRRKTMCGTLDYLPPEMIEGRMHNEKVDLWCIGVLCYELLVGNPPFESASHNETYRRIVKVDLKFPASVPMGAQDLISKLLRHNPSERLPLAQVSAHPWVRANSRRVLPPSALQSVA", "assay": "Inhibition of Aurora B (unknown origin) at 10 uM"}, "[27]": {"assay": "Half life in Sprague-Dawley rat at 2 mg/kg, po after 0.25 to 24 hrs", "assay_type": "ADME, organism-based", "conditions": "in vivo"}, "[28]": {"assay": "AUC (0 to infinity) in Sprague-Dawley rat at 1 mg/kg, iv after 0.25 to 24 hrs", "assay_type": "ADME, organism-based", "design": "dose 1 mg/kg, time infinity, route intravenous", "conditions": "in vivo"}, "[29]": {"assay": "Clearance in Sprague-Dawley rat at 1 mg/kg, iv after 0.25 to 24 hrs", "assay_type": "ADME, organism-based", "conditions": "in vivo"}, "Mus musculus [30]": {"test_system": "Mus musculus", "assay": "Toxicity in female ICR mouse assessed as average body weight at 2000 mg/kg, po administered for 2 days measured 3 hrs post last dose (reference value: 18.9 +/- 0.9 g)", "assay_type": "organism-based", "conditions": "in vivo"}, "[31]": {"biological_target": "Serine/threonine-protein kinase pim-1 (Homo sapiens) (UniProt P11309)", "sequence (P11309 whole entry, looked up)": "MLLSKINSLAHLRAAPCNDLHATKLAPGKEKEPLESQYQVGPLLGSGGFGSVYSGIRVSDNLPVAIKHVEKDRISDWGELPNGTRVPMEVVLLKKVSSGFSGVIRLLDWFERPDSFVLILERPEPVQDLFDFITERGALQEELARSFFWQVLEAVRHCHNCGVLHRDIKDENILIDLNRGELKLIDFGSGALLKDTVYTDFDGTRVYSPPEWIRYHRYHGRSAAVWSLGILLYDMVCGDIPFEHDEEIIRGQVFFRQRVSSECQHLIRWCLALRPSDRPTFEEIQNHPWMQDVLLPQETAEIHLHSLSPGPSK", "assay": "Inhibition of PIM1 (unknown origin) at 10 uM"}, "Mus musculus [32]": {"test_system": "Mus musculus", "assay": "Toxicity in ICR mouse assessed as mortality at 2000 mg/kg, po administered for 14 days measured on day 15", "assay_type": "organism-based", "conditions": "in vivo, 336 h"}},
  "note": "The source made the active and inactive calls. The calls are words filed in the database; no cut-off is given here.",
  "data": [
    {"smiles": "CN1CCN(CCCOc2ccc(N3C(=O)/C(=C/c4ccc(Oc5ccc(F)cc5)cc4)SC3=S)cc2)CC1", "values": [
      {"measurement": "inhibition", "setting": "Homo sapiens [1]", "value": 24.7, "unit": "%"},
      {"measurement": "inhibition", "setting": "[2]", "value": 2.5, "unit": "%"},
      {"measurement": "inhibition", "setting": "[3]", "value": 84.8, "unit": "%"},
      {"measurement": "half-life", "setting": "[4]", "value": 5.5, "unit": "h"},
      {"measurement": "remaining at 2 h", "setting": "[5]", "value": 87, "unit": "%"},
      {"measurement": "inhibition", "setting": "[6]", "value": 42, "unit": "%"},
      {"measurement": "inhibition", "setting": "Homo sapiens [7]", "value": 0, "unit": "%"},
      {"measurement": "inhibition", "setting": "[8]", "value": 14.8, "unit": "%"},
      {"measurement": "inhibition", "setting": "[9]", "value": 14, "unit": "%"},
      {"measurement": "inhibition", "setting": "[10]", "value": "Active"},
      {"measurement": "inhibition", "setting": "[11]", "value": 0, "unit": "%"},
      {"measurement": "Activity", "setting": "Mus musculus [12]", "value": 23.3, "unit": "g"},
      {"measurement": "Activity", "setting": "Mus musculus [13]", "value": 22.1, "unit": "g"},
      {"measurement": "inhibition", "setting": "[14]", "value": 20, "unit": "%"},
      {"measurement": "inhibition", "setting": "[15]", "value": 3.1, "unit": "%"},
      {"measurement": "half-life", "setting": "[16]", "value": 3.98, "unit": "h"},
      {"measurement": "Cmax", "setting": "[17]", "value": 8.6, "unit": "ng/mL"},
      {"measurement": "CL", "setting": "Rattus norvegicus", "value": 97.7, "unit": "mL/min/kg"},
      {"measurement": "inhibition", "setting": "[18]", "value": 0, "unit": "%"},
      {"measurement": "Activity", "setting": "Mus musculus [19]", "value": 21.5, "unit": "g"},
      {"measurement": "inhibition", "setting": "[20]", "value": 17.3, "unit": "%"},
      {"measurement": "inhibition", "setting": "[21]", "value": 0, "unit": "%"},
      {"measurement": "Activity", "setting": "Mus musculus [22]", "value": 35.1, "unit": "g"},
      {"measurement": "inhibition", "setting": "[23]", "value": 5.5, "unit": "%"},
      {"measurement": "Vd", "setting": "[24]", "value": 44.3, "unit": "L/kg"},
      {"measurement": "Activity", "setting": "Mus musculus [25]", "value": 28.9, "unit": "g"},
      {"measurement": "inhibition", "setting": "[26]", "value": 0, "unit": "%"},
      {"measurement": "half-life", "setting": "[27]", "value": 5.81, "unit": "h"},
      {"measurement": "AUC(0-inf)", "setting": "[28]", "value": 176, "unit": "ng·h/mL"},
      {"measurement": "clearance", "setting": "[29]", "value": 98, "unit": "mL/min/kg"},
      {"measurement": "Activity", "setting": "Mus musculus [30]", "value": 21.7, "unit": "g"},
      {"measurement": "inhibition", "setting": "[31]", "value": 0, "unit": "%"},
      {"measurement": "Activity", "setting": "Mus musculus [32]", "value": "Non-toxic"}
    ]}
  ]
}
